One series relates to A549. The series can be described thus: Cytotoxicity against human A549 cells upto 12.5 uM incubated for 24 hrs by resazurin dye based cell viability assay. The class given is toxicity. The note with it: a549, 24 h. In general terms: Alamar Blue is a resazurin reagent that responds to reducing activity.
The test system of series [1] is Mycobacterium intracellulare. The series can be described thus: Antibacterial activity against Mycobacterium intracellulare ATCC 13950 assessed as bacterial growth inhibition incubated for 2 to 3 weeks by resazurin dye based assay. The series is classed as functional. The note with it: time 2-3 weeks.
Series [2] has as its system Mycolicibacterium smegmatis. Briefly: Antibacterial activity against Mycobacterium smegmatis mc2 122 assessed as bacterial growth inhibition incubated for 2 to 3 weeks by resazurin dye based assay. The series is classed as functional. The note with it: time 2-3 weeks.
The test system of a further series is Mycobacterium avium. The series can be described thus: Antibacterial activity against Mycobacterium avium ATCC 25291 assessed as bacterial growth inhibition incubated for 2 to 3 weeks by resazurin dye based assay. The series is classed as functional. The note with it: time 2-3 weeks.
A further series relates to J774.1. Briefly: Cytotoxicity against mouse J774.1 cells upto 12.5 uM incubated for 24 hrs by resazurin dye based cell viability assay. The class given is toxicity. The note with it: j774.1, 24 h.
In series [3] the test system is Mycobacteroides abscessus. Briefly: Antibacterial activity against Mycobacterium abscessus ATCC 19977 assessed as bacterial growth inhibition incubated for 2 to 3 weeks by resazurin dye based assay. The class given is functional. The note with it: time 2-3 weeks.
Series [4] concerns Mycobacterium tuberculosis. The series can be described thus: Antibacterial activity against Mycobacterium tuberculosis mc2 6230 assessed as bacterial growth inhibition incubated 2 to 3 weeks by resazurin dye based assay. The series is classed as functional. The note with it: time 2-3 weeks.
For series [5], the system named is Mycobacterium parascrofulaceum. The series can be described thus: Antibacterial activity against Mycobacterium parascrofulaceum ATCC BAA-614 assessed as bacterial growth inhibition incubated for 2 to 3 weeks by resazurin dye based assay. The series is classed as functional. The note with it: time 2-3 weeks.
The test system of series [6] is Mycobacterium tuberculosis. The series can be described thus: Antibacterial activity against Mycobacterium tuberculosis H37Rv assessed as MIC of kanamycin A at 100 uM incubated for 24 hrs followed by kanamycin A addition measured after 6 days by alamarblue dye based assay. The note with it: time 7.0 day. The series is classed as functional.
Series [7] addresses T1, N-acetyltransferase Eis (Mycobacterium tuberculosis (strain ATCC 25618 / H37Rv), UniProt P9WFK7).
T1 sequence (P9WFK7 whole entry): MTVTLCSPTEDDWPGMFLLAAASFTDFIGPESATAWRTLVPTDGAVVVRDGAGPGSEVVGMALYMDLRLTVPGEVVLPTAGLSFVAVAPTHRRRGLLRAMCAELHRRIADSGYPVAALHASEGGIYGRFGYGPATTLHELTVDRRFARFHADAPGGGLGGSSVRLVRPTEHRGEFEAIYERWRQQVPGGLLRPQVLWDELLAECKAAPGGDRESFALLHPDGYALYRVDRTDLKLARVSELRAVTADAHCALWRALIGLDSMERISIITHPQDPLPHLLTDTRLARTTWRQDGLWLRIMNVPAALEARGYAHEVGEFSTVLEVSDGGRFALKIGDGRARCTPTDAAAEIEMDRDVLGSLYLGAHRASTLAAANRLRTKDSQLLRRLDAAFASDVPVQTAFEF
The series can be described thus: Inhibition of wild-type Mycobacterium tuberculosis Eis expressed in Escherichia coli BL21(DE3) cells incubated for 5 mins by Ellman's method. Background: DTNB colorimetry detects thiols as they appear.

In series [8] the test system is Mycobacterium tuberculosis. Briefly: Antibacterial activity against Mycobacterium tuberculosis H37Ra assessed as bacterial growth inhibition incubated 2 to 3 weeks by resazurin dye based assay. The note with it: time 2-3 weeks. The class given is functional.
The next series relates to HEK293. Briefly: Cytotoxicity against HEK293 cells upto 12.5 uM incubated for 24 hrs by resazurin dye based cell viability assay. The class given is toxicity. The note with it: human, hek293, 24 h.
Series [9] deals with Mycobacterium tuberculosis. Briefly: Antibacterial activity against Mycobacterium tuberculosis H37Rv assessed as MIC of kanamycin A at 43.8 uM incubated for 24 hrs followed by kanamycin A addition measured after 6 days by alamarblue dye based assay. The series is classed as functional. The note with it: 168 h, time 7 day.
The subject of series [10] is Mycobacterium tuberculosis. Briefly: Antibacterial activity against Mycobacterium tuberculosis mc2 6230 assessed as MIC of kanamycin A at 25 uM incubated for 24 hrs followed by kanamycin A addition measured after 6 days by alamarblue dye based assay. The class given is functional. The note with it: mc2 6230, 168 h, time 7 day.
The subject of series [11] is Mycobacterium tuberculosis. The series can be described thus: Antibacterial activity against Mycobacterium tuberculosis mc2 6230 K204 assessed as MIC of kanamycin A at 25 uM incubated for 24 hrs followed by kanamycin A addition measured after 6 days by alamarblue dye based assay. The note with it: time 7 day. The series is classed as functional.
For series [12], the system named is Mycobacterium tuberculosis. The series can be described thus: Antibacterial activity against Mycobacterium tuberculosis K204 assessed as MIC of kanamycin A at 55.8 uM incubated for 24 hrs followed by kanamycin A addition measured after 6 days by alamarblue dye based assay. The series is classed as functional. The note with it: K204, 168 h, time 7 day.
The target in series [13] is T1, N-acetyltransferase Eis. Briefly: Binding affinity to wild-type Mycobacterium tuberculosis Eis expressed in Escherichia coli BL21(DE3) cells assessed as inhibition constant incubated for 5 mins by Ellman's method based Michaelis-Menten analysis.
Series [14] deals with Mycobacterium tuberculosis. Briefly: Antibacterial activity against Mycobacterium tuberculosis H37Rv assessed as MIC of kanamycin A at 55.8 uM incubated for 24 hrs followed by kanamycin A addition measured after 6 days by alamarblue dye based assay. The series is classed as functional. The note with it: 168 h, time 7 day.
Series [15] relates to Mycobacterium tuberculosis. Briefly: Antibacterial activity against Mycobacterium tuberculosis H37Rv assessed as MIC of kanamycin A at 7.9 uM incubated for 24 hrs followed by kanamycin A addition measured after 6 days by alamarblue dye based assay. The class given is functional. The note with it: 168 h, time 7 day.
For series [16], the system named is Mycobacterium tuberculosis. The series can be described thus: Antibacterial activity against Mycobacterium tuberculosis H37Rv assessed as MIC of kanamycin A at 6.3 uM incubated for 24 hrs followed by kanamycin A addition measured after 6 days by alamarblue dye based assay. The class given is functional. The note with it: 168 h, time 7 day.
In series [17] the test system is Mycobacterium tuberculosis. The series can be described thus: Antibacterial activity against Mycobacterium tuberculosis H37Rv assessed as MIC of kanamycin A at 95.9 uM incubated for 24 hrs followed by kanamycin A addition measured after 6 days by alamarblue dye based assay. The class given is functional, organism-based. The note with it: time 7.0 day.
Series [18] relates to Mycobacterium tuberculosis. Briefly: Antibacterial activity against Mycobacterium tuberculosis K204 assessed as MIC of kanamycin A at 95.9 uM incubated for 24 hrs followed by kanamycin A addition measured after 6 days by alamarblue dye based assay. The series is classed as functional, organism-based. The note with it: time 7.0 day.

Values after ≈ are worked out from the molar mass of the structure shown. Active and inactive are the calls of the source. The calls are words filed in the database; no cut-off is given here.

Turning to `Fc1ccc(COc2ccccc2CNCc2ccccc2)cc1`, the Activity entry in the series with A549, with J774.1 and with HEK293 was “Non-Toxic” throughout. Further, the MIC (in general, the lowest concentration found to suppress growth) in [1] is 31.3 µM (≈ 10.1 µg/mL); in [2], over 62.5 µM; in the series with Mycobacterium avium, over 62.5 µM; in series [3] it was 31.3 µM (≈ 10.1 µg/mL); in series [4], 50 µM (≈ 16.1 µg/mL); in series [5], 31.3 µM (≈ 10.1 µg/mL). Also, the MIC in series [8] was determined as 31.3 µM (≈ 10.1 µg/mL). Besides, the outcome in [6] was Active. In addition, the half-inhibitory concentration (IC50) – broadly, the concentration at which inhibition is half-maximal – on N-acetyltransferase Eis [7] is about 8 µM.

With `Fc1ccc(COc2ccccc2CNCc2ccncc2)cc1`, the MIC in [4] is 50 µM (≈ 16.1 µg/mL); in [8], over 250 µM; in series [9], 2.5 µg/mL. The compound further yielded an IC50 against N-acetyltransferase Eis [7] of about 100 µM.

Take `Brc1cccc(COc2ccc(CNCc3ccccc3)cc2)c1`: the MIC was 3.9 µM (≈ 1.49 µg/mL) in series [1]; 2 µM (≈ 0.765 µg/mL) in series [2]; 31.3 µM (≈ 12 µg/mL) with Mycobacterium avium; under 1.25 µM in series [10]; 31.3 µM (≈ 12 µg/mL) in series [3]; 50 µM (≈ 19.1 µg/mL) in [4]. The MIC is 2 µM (≈ 0.765 µg/mL) in [5]; at most 1.25 µM in series [11] (Mycobacterium tuberculosis, mc2 6230 K204, 168 h, read-out: MIC); 3.9 µM (≈ 1.49 µg/mL) in series [8]. For the same compound, the IC50 against N-acetyltransferase Eis [7] came out at 2.4 µM.

On to `Clc1ccc(COc2ccccc2CNCc2ccncc2)cc1`, for which the MIC in [1] is 31.3 µM (≈ 10.6 µg/mL); in series [12] it was over 10 µg/mL; with Mycobacterium avium, over 62.5 µM; in series [10] it was under 1.25 µM; in [3], 31.3 µM (≈ 10.6 µg/mL); in series [4], 50 µM (≈ 16.9 µg/mL). Moreover, the minimum inhibitory concentration (MIC) is over 62.5 µM in series [5], over 10 µM in [11], under 1.25 µg/mL in series [14] and 31.3 µM (≈ 10.6 µg/mL) in series [8]. The Ki (usually the equilibrium dissociation constant of an inhibitor or competing ligand from its target) at N-acetyltransferase Eis [13] came out at 1.04 µM. Besides, at N-acetyltransferase Eis [7], the IC50 worked out at 1.4 µM.

For the compound `Clc1cccc(COc2ccccc2CNCc2cccnc2)c1`, the MIC in series [1] is over 62.5 µM; in the series with Mycobacterium avium it was over 62.5 µM; in series [3], over 62.5 µM; in series [4], 100 µM (≈ 33.9 µg/mL); in [5], over 62.5 µM; in [15], 7.9 µg/mL. On N-acetyltransferase Eis [7], this compound came in with a concentration for half-maximal inhibition (IC50) of 4.2 µM.

As for `Clc1ccc(COc2cccc(CNCc3cccnc3)c2)cc1`, the minimum inhibitory concentration (MIC) is 31.3 µM (≈ 10.6 µg/mL) in [1]; 31.3 µM (≈ 10.6 µg/mL) in series [2]; over 62.5 µM in the series with Mycobacterium avium; 50 µM (≈ 16.9 µg/mL) in series [4]; 2.5 µg/mL in series [16]; 15.6 µM (≈ 5.29 µg/mL) in series [8]. This compound also came in with an IC50 against N-acetyltransferase Eis [7] of 2.5 µM.

Turning to `Brc1ccc(COc2ccccc2CNCc2cccnc2)cc1`, the Activity entry in the series on A549, in the series on J774.1 and with HEK293 was “Non-Toxic” throughout. The minimum inhibitory concentration (MIC) in series [1] was over 62.5 µM; with Mycobacterium avium it was over 62.5 µM; in [3], over 62.5 µM; in series [4], 100 µM (≈ 38.3 µg/mL); in [5], over 62.5 µM. Also, the outcome in series [17], in series [6] and in series [18] was Active. For the same compound, on N-acetyltransferase Eis [7], the IC50 was about 8 µM.
